How the values were obtained:
[1] = biological target: T1, influenza A virus (IAV) PA-Nter fragment (amino acids 1-209) (Influenza A virus, UniProt P31343); assay: FRET endonuclease activity assay; type: biochemical; settings: PA-Nter 0.5 μM, 1.6 μM RNA substrate
T1 construct: PA-Nter fragment (amino acids 1-209); made in house

[2] = system: influenza A virus A/Aichi/2/68 (H3N2) on MDCK cells; assay: Cytopathic effect (CPE) assay; type: cell-based; settings: for IC50: Influenza A virus, 48 hrs; for CPE (% CPE reduction): @ 50 μM
[3] = biological target: whole RNP complex of IAV strain A/PR/8/34 (Influenza A virus, UniProt P03433); assay: Transcription assay (TA assay); type: biochemical; settings: RNPs of A/PR/8/34, capped RNA substrate

| SMILES | IC50 [1] [µM] | IC50 ([2]; the 1st table) [µM] | IC50 ([2]; the 2nd table) [µM] | IC50 [3] [µM] | also measured |
| --- | --- | --- | --- | --- | --- |
| CN1CCn2c(CNS(=O)(=O)c3ccc(Cl)cc3)cc(=O)c(O)c2C1=O | 0.13 | > 50 | – | – | – |
| Cc1ccccc1S(=O)(=O)NCc1cc(=O)c(O)c2n1CCN(C)C2=O | 0.048 | > 50 | – | – | – |
| CN1CCn2c(CNS(=O)(=O)c3cccc(Cl)c3)cc(=O)c(O)c2C1=O | 0.082 | > 50 | – | – | – |
| CC(C)N1CCn2c(CNS(=O)(=O)c3ccc(Cl)cc3F)cc(=O)c(O)c2C1=O | 0.223 | > 50 | – | – | – |
| CC(C)N1CCn2c(CNS(=O)(=O)c3ccc(Cl)cc3Cl)cc(=O)c(O)c2C1=O | 0.144 | > 50 | – | – | – |
| CC(C)N1CCn2c(CNS(=O)(=O)c3cccc4ccccc34)cc(=O)c(O)c2C1=O | 0.124 | > 50 | – | – | – |
| CC(C)N1CCn2c(CNS(=O)(=O)c3cn(C)cn3)cc(=O)c(O)c2C1=O | 0.26 | > 50 | – | – | – |
| Cc1noc(C)c1S(=O)(=O)NCc1cc(=O)c(O)c2n1CCN(C(C)C)C2=O | 0.182 | > 50 | – | – | – |
| CC(C)N1CCn2c(CNS(=O)(=O)C3CC3)cc(=O)c(O)c2C1=O | 0.181 | > 50 | – | – | – |
| CC(C)CS(=O)(=O)NCc1cc(=O)c(O)c2n1CCN(C(C)C)C2=O | 0.211 | > 50 | – | – | – |
| CC(C)N1CCn2c(CNS(=O)(=O)N(C)C)cc(=O)c(O)c2C1=O | 0.09 | > 50 | – | – | – |
| CC(C)N1CCn2c(CN(C)S(=O)(=O)c3ccccc3)cc(=O)c(O)c2C1=O | 0.2 | > 50 | – | – | – |
| CC(C)N1CCn2c(CN(Cc3ccccc3)C(=O)c3ccccc3)cc(=O)c(O)c2C1=O | 0.315 | > 50 | – | – | – |
| CC(C)N1CCn2c(CN(Cc3ccccc3)Cc3ccccc3)cc(=O)c(O)c2C1=O | 1.55 | > 50 | – | – | – |
| CCCN(Cc1ccccc1)Cc1cc(=O)c(O)c2n1CCN(C(C)C)C2=O | 0.39 | > 50 | – | – | – |
| CC(C)N1CCn2c(CNC(=O)c3ccc(Cl)cc3)cc(=O)c(O)c2C1=O | 0.245 | > 50 | – | – | – |
| CC(=O)N(Cc1ccccc1)Cc1cc(=O)c(O)c2n1CCN(C(C)C)C2=O | 0.044 | > 50 | – | – | – |
| CC(=O)N(Cc1cc(=O)c(O)c2n1CCN(C(C)C)C2=O)C1CCCCC1 | 0.048 | > 50 | – | – | – |
| CC(C)N1CCn2c(CNC3CCCCC3)cc(=O)c(O)c2C1=O | 0.497 | > 50 | – | – | – |
| CC(C)N1CCn2c(CN(C(=O)Cc3ccc(F)cc3F)C3CCCCC3)cc(=O)c(O)c2C1=O | 0.58 | > 50 | – | – | – |
| CC(C)CC(=O)N(Cc1cc(=O)c(O)c2n1CCN(C(C)C)C2=O)C1CCCCC1 | 0.469 | > 50 | – | – | – |
| CC(C)N1CCn2c(CN(C)C)cc(=O)c(O)c2C1=O | 0.092 | > 50 | – | – | – |
| CC(C)N1CCn2c(CN)cc(=O)c(O)c2C1=O | 0.493 | > 50 | – | – | – |
| CC(C)N1CCn2c(CNC3c4ccccc4CCc4ccccc43)cc(=O)c(O)c2C1=O | 3.62 | > 50 | – | – | – |

| SMILES | IC50 [1] [µM] | IC50 ([2]; the 1st table) [µM] | IC50 ([2]; the 2nd table) [µM] | IC50 [3] [µM] | also measured |
| --- | --- | --- | --- | --- | --- |
| CC(C)N1CCn2c(CNC(c3ccccc3)c3ccccc3)cc(=O)c(O)c2C1=O | 1.13 | > 50 | – | – | – |
| Cc1cccc(C(=O)NCc2cc(=O)c(O)c3n2CCN(C(C)C)C3=O)c1 | 1.07 | > 50 | – | – | – |
| CC(C)N1CCn2c(CNC(=O)c3cccn3C)cc(=O)c(O)c2C1=O | 0.31 | > 50 | – | – | – |
| CC(C)N1CCn2c(CN(Cc3ccccc3)C(=O)C3CC(F)(F)C3)cc(=O)c(O)c2C1=O | – | – | > 50 | 2.98 | – |
| CC(C)N1CCn2c(CN(Cc3cccc4ccccc34)C(=O)C3CC(F)(F)C3)cc(=O)c(O)c2C1=O | – | – | > 50 | 0.253 | – |
| CC(C)N1CCn2c(CN(Cc3ccccc3-c3ccccc3)C(=O)C3CC(F)(F)C3)cc(=O)c(O)c2C1=O | – | – | > 50 | 0.229 | – |
| CC(C)N1CCn2c(CNCc3ccccc3-c3ccccc3)cc(=O)c(O)c2C1=O | – | – | > 50 | 0.535 | – |
| CC(C)N1CCn2c(CN(C)Cc3ccc(Cl)cc3)cc(=O)c(O)c2C1=O | – | – | > 50 | 2.11 | – |
| CC(C)N1CCn2c(CN(C)Cc3ccccc3)cc(=O)c(O)c2C1=O | – | – | > 50 | 0.804 | – |
| CCN(Cc1ccccc1)Cc1cc(=O)c(O)c2n1CCN(C(C)C)C2=O | – | – | > 50 | 1.56 | – |
| CCN(Cc1ccc(Cl)cc1)Cc1cc(=O)c(O)c2n1CCN(C(C)C)C2=O.O=C(O)C(F)(F)F | – | – | – | 0.682 | CPE (% CPE reduction) [2]: 18% @ 50 μM |
| CC(C)N1CCn2c(CN(C)Cc3cccc(Cl)c3)cc(=O)c(O)c2C1=O.O=C(O)C(F)(F)F | – | – | – | 0.081 | CPE (% CPE reduction) [2]: 30.8% @ 50 μM |
| CCCN(Cc1cccc2ccccc12)Cc1cc(=O)c(O)c2n1CCN(C(C)C)C2=O | – | – | > 50 | 1.02 | – |
| CCCN(Cc1ccccc1-c1ccccc1)Cc1cc(=O)c(O)c2n1CCN(C(C)C)C2=O.O=C(O)C(F)(F)F | – | – | > 50 | – | TA IC50 [3]: in- soluble |
| CCCN(Cc1cccc(-c2ccccc2)c1)Cc1cc(=O)c(O)c2n1CCN(C(C)C)C2=O | – | – | > 50 | 0.69 | – |
| CCCN(Cc1ccc(-c2ccccc2)cc1)Cc1cc(=O)c(O)c2n1CCN(C(C)C)C2=O | – | – | > 50 | 63.8 | – |
| CC(C)N1CCn2c(CN(Cc3cccc(-c4ccccc4)c3)C3CC3)cc(=O)c(O)c2C1=O | – | – | > 50 | 0.533 | – |
| CC(C)N1CCn2c(CN(Cc3ccc(-c4ccccc4)cc3)C3CC3)cc(=O)c(O)c2C1=O | – | – | > 50 | 5.31 | – |
| CC(C)N1CCn2c(CN(C)Cc3ccc(-c4ccccc4)cc3)cc(=O)c(O)c2C1=O | – | – | > 50 | 11.7 | – |
| CC(C)N1CCn2c(CN(Cc3cccc(Cl)c3)C3CC3)cc(=O)c(O)c2C1=O | – | – | > 50 | 0.171 | – |
| CCN(Cc1cccc2ccccc12)Cc1cc(=O)c(O)c2n1CCN(C(C)C)C2=O | – | – | > 50 | 0.22 | – |
| CCCN(Cc1cc(=O)c(O)c2n1CCN(C(C)C)C2=O)C1(c2ccccc2)CCCC1 | – | – | > 50 | 0.87 | – |
| CCCN(Cc1cc(=O)c(O)c2n1CCN(C(C)C)C2=O)CC1(c2ccccc2)CCCC1 | – | – | > 50 | 0.452 | – |

From patent US20160002226A1, “PYRI[…] AND THEIR USE IN THE TREATMENT, AMELIORATION OR PREVENTION OF INFLUENZA” (F. Hoffmann-La Roche AG, priority 2014, published 2016)
